From patent US5688818A, “Succinamic acid compound, production method thereof and use thereof” (Senju Pharmaceutical Co., Ltd., priority 1993, dated 1997)
pIC50: −log10 of the molar value.

Tests used:
[1] = target: T1, aldose reductase (Sus scrofa, UniProt P80276); assay: Aldose reductase activity-inhibitory action; format: biochemical; conditions: pH 6.2, 25° C., 2 minutes, 3 mM dl-glyceraldehyde substrate, 0.1 mM NADPH, swine lens enzyme
T1 construct: swine lenses freeze-stored at -80° C. were homogenized with distilled water; from tissue; host or cells: swine lens (40% ammonium sulfate supernatant, dialyzed)
Procedure: 1) Aldose reductase activity-inhibitory action
That is, swine lenses freeze-stored at -80° C. were homogenized with distilled water and centrifuged at 10,000 G for 15 minutes. The supernatant was prepared into a 40% ammonium sulfate solution and subjected to centrifugation at 10,000 G for 10 minutes.
The activity of aldose reductase was determined by the above-mentioned method of S. Hayman et al. That is, the above-mentioned enzyme solution (25 μl) and a drug solution (25 μl) dissolved in 1% DMSO at various concentrations were added to a 40 mM phosphate buffer (200 μl, pH 6.2) containing, at final concentrations, 0.4M lithium sulfate, 0. 1 mM NADPH (reduced type nicotinamide adenine dinucleotide phosphate) and 3 mM dl-glyceraldehyde as a substrate.
The test drug number indicates the example number to be mentioned later.

[2] = tested on: sorbitol content in the tissues (erythrocytes, sciatic nerve, lens); assay: Inhibitory action on sorbitol accumulation in tissues of rats with experimental diabetes; format: in vivo, Sprague-Dawley rats; conditions: relative to control group = 100%; for Sorbitol accumulation (%) nerve: sciatic nerve
Procedure: 2) Inhibitory action on sorbitol accumulation in tissues of rats with experimental diabetes
Test Compounds: Compounds of Example 23 and 29 and EPALRESTAT (described in Japanese Patent Unexamined Publication No. 40478/1982)
Sprague-Dawley rats (male, 6 weeks old, 5-6 per group) were fasted for 18 hours and injected with streptozotocin (SIGMA, 60 mg/kg) via the tail vein under ether anesthesia to prepare rats with diabetes.
The test compounds were orally administered at 4, 8 and 24 hours after the injection of streptozotocin. EPALRESTAT was administered orally in the dose of 30 mg/kg and the compounds of Examples 23 and 29 were administered orally in the dose of 10 mg/kg as a 0. 5% carboxymethylcellulose suspension, respectively. During the administrations, the rats were raised under free access to feed and water and the sorbitol content in the tissues (erythrocytes, sciatic nerve, lens) was determined 3 hours after the final administration, according to the enzyme method of H. Y. Bergmeyer et al. [Methods of Enzymatic Analysis, vol. 3, 1323-1330 (1974)] with the use of SDH (sorbitol dehydrogenase) and NAD (β-nicotinamide adenine dinucleotide). The results are expressed in percent (%) relative to the value of a control group administered with a 0.5% carboxymethylcellutose solution (solvent) instead of the compound, which was taken as 100%.

[3] = tested on: Normal ICR mice; conditions: mouse, in vivo
Procedure: The acute toxicity (safety) of the single dose of the compound of the present invention was confirmed by the following test.
Normal ICR mice (male, 7 weeks old, 5 per group) were fasted for 18 hours and the compound (300 mg/kg) of Example 29 was orally administered as a 0.5% carboxymethylcellulose suspension. To the control group, a 0.5% carboxymethylcellulose solution alone was orally administered and observation was continued for 14 days thereafter, during which period the mice were allowed to take feed and water freely.

[4] = 10 mg/kg orally at 4, 8 and 24 hours after streptozotocin, * p < 0.01 Tukey
[5] = 30 mg/kg orally at 4, 8 and 24 hours after streptozotocin

SMILES | pIC50 [1] | Sorbitol accumulation (%) erythrocytes [2, 4] [%] | Sorbitol accumulation (%) lens [2, 4] [%] | Sorbitol accumulation (%) nerve [2, 4] [%] | death case among the mice [3] | Sorbitol accumulation (%) erythrocytes [2, 5] [%] | Sorbitol accumulation (%) lens [2, 5] [%] | Sorbitol accumulation (%) nerve [2, 5] [%]
CCCCN(Cc1nc2c(F)c(F)cc(F)c2s1)C(=O)CCC(=O)O [Example 26, N-(4,5,7-Trifluorobenzothiazol-2-yl)methyl-N-butylsuccinamic acid] | 7.74 | – | – | – | – | – | – | –
CN(Cc1nc2c(F)c(F)cc(F)c2s1)C(=O)CCC(=O)O [Example 23, N-(4,5,7-Trifluorobenzothiazol-2-yl)methyl-N-methylsuccinamic acid] | 7.89 | 6.3 | 69.5 | 4.2 | – | – | – | –
O=C(O)CCC(=O)N(Cc1nc2c(F)c(F)cc(F)c2s1)C1CC1 [Example 29] | 7.77 | 12.2 | 45.4 | 1.0 | no death case | – | – | –
CC(/C=C1\SC(=S)N(CC(=O)O)C1=O)=C\c1ccccc1 [EPALRESTAT, reference compound] | 7.68 | – | – | – | – | 66.5 | 89.1 | 99.9
